The series is described as follows: Brookfield viscosity of acyl lactylates alone and 1:1 with glycols. The series is classed as physicochemical. Conditions: Brookfield 95, 5 RPM, 25° C.; acyl lactylate alone. The source says: An advantage of compositions including an acyl lactylate and a glycol is the reduction of viscosity that is present in acyl lactylates, which is rather high and increases difficulty in processing. […] Of course, it is expected that a lowering of viscosity of the acyl lactylates would be realized in ratios of acyl lactylates:glycols other than 1:1 as well.

The values below come from patent US11655994B2, “Antimicrobial composition including an acyl lactylate and a glycol and methods of inhibiting microbial growth utilizing the same” (Kimberly-Clark Worldwide, Inc., priority 2017, dated 2023).

With Sodium Caproyl/Lauroyl Lactylate, the Viscosity was 1,192,000 cP.

For `CCCCCCCCCCCC(=O)OC(C)C(=O)OC(C)C(=O)[O-].[Na+]` (stereo not drawn) [Sodium Lauroyl Lactylate], the Viscosity is on record as 1,520,000 cP.

Turning to Sodium Isostearoyl Lactylate, the Viscosity was 1,080,000 cP.
